A short description of this data set: solvent given as SMILES.

The compound `c1ccc(-c2ccc(-c3ccc4c(c3)CCCO4)cc2)cc1` yielded an emission maximum (in C1CCCCC1) of 359 nm.
`O=Cc1cc2c(cc3ccc4cccc5ccc2c3c45)[nH]1` returned an emission maximum (in CCOC(C)=O) of 438 nm.
In the case of `c1ccc(-c2cc(-c3ccc4ccc5c(-c6ccnc(-c7ccccn7)c6)ccc6ccc3c4c65)ccn2)nc1`, the emission maximum reads like this: (in C1CCOC1) 408 nm; (in CC#N) 418.01 nm; (in CCC#N) 408 nm; (in CCCC#N) 408 nm; (in CCCCCC) 397.99 nm; (in CCCO) 429 nm. Moreover, the emission maximum (in CCO) amounted to 430 nm, the emission maximum (in CO) was 430 nm and the emission maximum (in Cc1ccccc1) came out at 410.17 nm.
Regarding `O=P1(c2ccccc2)C2=C(c3ccccc31)C(c1ccccc1)(c1ccccc1)c1cc(N(c3ccccc3)c3ccccc3)ccc12` (centres undefined), the emission maximum reads like this: (in CC#N) 594 nm; (in CO) 608 nm; (in Cc1ccccc1) 522 nm.
In the case of `CC(C)(C)c1ccc2c(c1)c1cc(C(C)(C)C)ccc1n2-c1nc2ccccc2nc1-n1c2ccc(C(C)(C)C)cc2c2cc(C(C)(C)C)ccc21`, the emission maximum stood at 544.34 nm (in C1CCOC1), 488.69 nm (in CCCCCC) and 527 nm (in Cc1ccccc1).
In turn, `Cc1cn(C)c(=O)nc1-n1cncn1` registered an emission maximum (in O) of 389 nm.
With `COc1ccc(C2=C3C=CC(=[N+](C)C)C=C3[Si](C)(C)c3cc(N(C)C)ccc32)c(OC)c1`, where the note is “in O”, the emission maximum came out at 663 nm.
In the case of `F[B-]1(F)n2c(c3cccc4cccc2c43)=Nc2cccc(Cl)[n+]21`, the emission maximum reads like this: (in C1CCOC1) 503 nm; (in CC#N) 502 nm; (in CCCCCC) 498 nm; (in Cc1ccccc1) 503 nm; (in ClCCl) 526 nm.
In turn, `O=Cc1ccc(Oc2ccc3c4c(cccc24)C(=O)N(CCO)C3=O)cc1` displayed an emission maximum (in ClC(Cl)Cl) of 414 nm.
`COc1ccccc1C1=[N+]2C(=C(c3ccccc3)c3c4ccccc4c(-c4ccccc4OC)n3[B-]2(F)F)c2ccccc21`: under “in ClCCl”, the emission maximum came out at 652 nm.
With `N#Cc1ccc2[nH]ccc2c1`, the emission maximum reads like this: (in C1CCOC1) 349 nm; (in C1COCCO1) 348 nm; (in CC#N) 362 nm; (in CC(C)O) 362 nm; (in CCO) 364 nm; (in CO) 367 nm. The emission maximum stood at 371 nm (in CS(C)=O), 390 nm (in O) and 374 nm (in OCC(F)(F)F).
Compound `C(S/C=C/c1ccc(-c2ccc(/C=C/SC=C(c3ccccc3)c3ccccc3)cc2)cc1)=C(c1ccccc1)c1ccccc1` had an emission maximum (in ClCCl) of 441 nm.
Regarding `C(=C\c1nc2c3ccccc3c3ccccc3c2o1)/c1ccccc1`, for the setting “in CC#N”, the emission maximum is given as 434 nm.
Turning to `CC[N+](CC)=c1ccc2cc3c(oc-2c1)-c1ccc(N(C)C)cc1CC3`, the emission maximum is, setting by setting: (in CCO) 644 nm; (in ClCCl) 642 nm; (in O) 641 nm.
For the compound `CCCCCCN1C(=O)c2cccc3c(-c4ccc(-c5cccs5)s4)ccc(c23)C1=O`, where the note is “in ClC(Cl)Cl”, the emission maximum came to 534 nm.
Turning to `N#Cc1ccc(C#Cc2ncc(-c3ccccc3)o2)cc1`, the emission maximum (in ClCCl) was found to be 410 nm.
As to `CCC1=C(C)C2=Cc3c4ccccc4c4n3[B-](C)(Oc3ccccc3-4)[N+]2=C1C` (centres undefined), the emission maximum by setting is: (in CC#N) 630 nm; (in CCCCCC) 632 nm; (in Cc1ccccc1) 636 nm; (in ClCCl) 635 nm.
Consider `COc1ccc(-c2cc3ccc4cc(-c5ccc(OC)cc5)cc5ccc(c2)c3c45)cc1`, for which the emission maximum was determined as 418.86 nm (in C1CCCCC1); 416.47 nm (in C1CCOC1); 414.88 nm (in CC#N); 417.26 nm (in CCCCCC); 416.27 nm (in CCO); 417.86 nm (in CN(C)C=O). Moreover, the emission maximum (in CO) worked out at 418.06 nm, the emission maximum (in ClC(Cl)Cl) is recorded as 417.61 nm and the emission maximum (in ClCCl) turned out to be 417.26 nm.
As for `COCCOCCOCCOCC(COCCOCCOCCOC)Oc1cc(/C=C/c2ccc(/C=C(\C#N)C(=O)c3ccccc3)cc2)c(OC(COCCOCCOCCOC)COCCOCCOCCOC)cc1/C=C/c1ccc(/C=C(\C#N)C(=O)c2ccccc2)cc1`, the emission maximum (in ClCCl) amounted to 621 nm.
With `CCOC(CN1C(=O)C2=C(c3cccs3)N(CC(OCC)OCC)C(=O)C2=C1c1cccs1)OCC`, the emission maximum (in ClC(Cl)Cl) is 557 nm.
The compound `O=C(O)c1ccccc1-c1nc(-c2ccccc2)c2ccccn12` registered an emission maximum (in CC#N) of 494 nm.
In the case of `COc1c2ccccc2c(OC)c2c(C#Cc3ccccc3)c3cc4ccccc4cc3c(C#Cc3ccccc3)c12`, the emission maximum (in ClCCl) worked out at 718 nm.
Take `c1ccc(-c2nc(-c3ccccc3)nc(-c3ccccc3-n3c4ccccc4c4c5oc6ccccc6c5ccc43)n2)cc1`: the emission maximum (in C1CCCCC1) was found to be 438.08 nm, the emission maximum (in C1CCOC1) was 492.26 nm, the emission maximum (in Cc1ccccc1) was 474.61 nm and the emission maximum (in O=P(c1ccccc1)(c1ccccc1)c1ccccc1Oc1ccccc1P(=O)(c1ccccc1)c1ccccc1) is reported as 456.95 nm.
For the setting “in C1CCCCC1”, `CCCC1(CCC)c2cc(-c3ccc(OC)cc3)ccc2-c2ccc(-c3ccc4c(c3)C(CCC)(CCC)c3cc(-c5ccc(OC)cc5)ccc3-4)cc21` showed an emission maximum of 395 nm.
Regarding `C#CC1CN2CCC1CC2[C@@H](O)c1ccnc2ccc(OC)cc12` (some centres undefined), the emission maximum reads like this: (in C1CCOC1) 361 nm; (in CC#N) 358 nm; (in CCCC#N) 359 nm; (in Cc1ccccc1) 360 nm; (in ClCCl) 363 nm.
Turning to `COc1ccc(-c2ncccn2)cc1`, under “in ClCCl”, the emission maximum came to 356 nm.
For the setting “in CS(C)=O”, `Clc1cccc(-c2nc3sc4ccccc4c3s2)c1` gave an emission maximum of 420 nm.
For the compound `CCCCCCN1C(=O)c2cccc3cc(/N=C\c4nc5ccccc5s4)cc(c23)C1=O`, where the note is “in ClC(Cl)Cl”, the emission maximum is reported as 495 nm.
Where the note is “in O”, `C=CC1CN2CCC1CC2[C@H](O)c1ccnc2ccc(OC)cc12` (some centres undefined) yielded an emission maximum of 451 nm.
On to `COc1ccc(-c2cc3c(s2)c(-c2ccccc2)cc(=O)n3C)cc1`, for which the emission maximum is reported as 435 nm (in CC#N) and 437 nm (in ClCCl).
For the setting “in Cc1ccccc1”, `CCCCCCCCCCC(CCCCCCCCCC)Cn1c2cc(-c3ccc(C(C)(C)C)cc3)c3cccc4c5ccc6c7cc(-c8cc(C(C)(C)C)cc(C(C)(C)C)c8)n8c7c(c7cc1c(c5c76)c2c34)=C1C=CC(c2cc(C(C)(C)C)cc(C(C)(C)C)c2)=[N+]1[B-]8(F)F` had an emission maximum of 830 nm.
On to `Oc1ccc2ccccc2c1/C=N/c1cc2ccccc2cc1/N=C/c1c(O)ccc2ccccc12`, for which, for the setting “in CC#N”, the emission maximum came to 509 nm.
Take `CC(C)CN1C(=O)/C(=C/c2ccc(C#N)cc2)C=C1c1ccccc1`: the emission maximum (in C1COCCO1) is reported as 598 nm.
For the compound `CC(C)(C)c1ccc2c(c1)c1cc(C(C)(C)C)cc3c1n2B1c2c-3cccc2-c2cc(C(C)(C)C)cc3c4cc(C(C)(C)C)ccc4n1c23`, under “in C1CCOC1”, the emission maximum was determined as 384 nm.
With `COc1ccc(C2=C/C(=C\c3ccc([N+](=O)[O-])cc3)C(=O)N2CC(C)C)cc1`, the emission maximum (in C1COCCO1) came out at 616 nm.
`CC(C)[Si](C#Cc1c2nc3c(nc2c(C#C[Si](C(C)C)(C(C)C)C(C)C)c2nc4c(nc12)C1c2ccccc2C4c2ccccc21)C1c2ccccc2C3c2ccccc21)(C(C)C)C(C)C` had an emission maximum (in CCCCCC) of 466 nm.
As to `CC(C)CCC[C@@H](C)[C@H]1CC[C@H]2[C@@H]3CC=C4C[C@@H](OC(=O)Oc5cc(/C=C/c6ccc(N(C)C)cc6)ccc5[N+](=O)[O-])CC[C@]4(C)[C@H]3CC[C@]12C`, the emission maximum is, setting by setting: (in C1CCCCC1) 503 nm; (in C1COCCO1) 573 nm; (in CCCCCCC) 503 nm; (in Cc1ccccc1) 554 nm.
Where the note is “in ClC(Cl)Cl”, `F[B-]1(F)OC(c2ccccc2)=Cc2c3ccccc3cc[n+]21` had an emission maximum of 463.2 nm.
With `C[Si](C)(C)c1ccc2ccc3cccc4ccc1c2c34`, the emission maximum by setting is: (in CCCCCC) 346 nm; (in CO) 376 nm; (in ClCCl) 377 nm.
As for `CCCC1=Cc2nc1ccc1[nH]c(cc1CCC)c1nc(c(N)cc3[nH]c2cc3CCC)C(CCC)=C1`, under “in Cc1ccccc1”, the emission maximum is on record as 729 nm.
Turning to `CCCCCCn1c2cc(C=O)sc2c2sc3c(sc4c5sc(C=O)cc5n(CCCCCC)c43)c21`, under “in ClCCl”, the emission maximum was 496 nm.
`CCCCc1ccc2c(c1)c1cc(CCCC)ccc1n2-c1ccc(S(=O)(=O)c2ccc(S(=O)(=O)c3ccc(-n4c5ccc(CCCC)cc5c5cc(CCCC)ccc54)cc3)cc2)cc1`: the emission maximum reads like this: (in Cc1ccccc1) 450 nm; (in c1cc(-n2c3ccccc3c3ccccc32)nc(-n2c3ccccc3c3ccccc32)c1) 467.24 nm.
With `N#Cc1cc2ccccc2oc1=O`, the emission maximum reads like this: (in C1CCCCC1) 412 nm; (in C1CCOC1) 409 nm; (in CC#N) 407 nm; (in CCOC(C)=O) 410 nm; (in CS(C)=O) 405 nm; (in ClC(Cl)Cl) 411 nm.
For `CCC1=C(C)C2=C(C)c3cccn3[B-](F)(F)[N+]2=C1C`, the emission maximum was determined as 515 nm (in C1CCCCC1); 512.5 nm (in CC(C)=O); 513.5 nm (in CCO); 512.5 nm (in CCOC(C)=O); 512.5 nm (in CO); 511 nm (in OCC(F)(F)F).
Under “in ClCCl”, `CCN(CC)c1ccc2c(-c3ccccc3C(=O)O)c3c([o+]c2c1)/C(=C/c1ccc(N(C)C)s1)CCC3` gave an emission maximum of 766 nm.
In turn, `COc1ccc(C2=[O+][B-](F)(F)OC(c3ccc4c(c3)Cc3ccccc3-4)=C2)cc1` registered an emission maximum (in CC#N) of 466 nm.
With `CCN(CC)c1ccc2c(C#N)c(/C=C(\C#N)c3nc4ccccc4s3)c(=O)oc2c1`, the emission maximum is, setting by setting: (in C1COCCO1) 647 nm; (in CC#N) 679 nm; (in CCO) 692 nm; (in CCOC(C)=O) 664 nm; (in CO) 701 nm; (in Cc1ccccc1) 637 nm. This compound also returned an emission maximum (in ClCCl) of 666 nm.
